For 19 compounds, inhibition, fold induction and cytotoxicity results are on record in US10040804B2, “Compounds targeting proteins, compositions, methods, and uses thereof” (BioTheryX, Inc., priority 2016, dated 2018).

Structures can show the parent of a compound that is named as a salt.

The inhibition is the share of the control response that was lost under treatment.

The subject of one test is IL-1β. Briefly: IL-1β expression in LPS stimulated PBMCs (Meso Scale). Conditions: Homo sapiens, PBMC, compound concentration 10 μM. The class given is cell-based, human. The gist of the method:
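Human PBMCs (200,000 cells/well in RPMI-1640/10% FBS) were pretreated with compound for 1 h, then stimulated with 100 ng/mL LPS for 18-24 h. IL-1β in supernatant was measured by Meso Scale assay. Activity is expressed as percentage of LPS-induced level, with DMSO-treated wells as negative control.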

The next test relates to TNF-α. Briefly: TNF-α expression in LPS stimulated PBMCs (Meso Scale). The class given is cell-based, human. To be noted: Homo sapiens, PBMC, compound concentration 10 μM. The gist of the method: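 Thawed primary human PBMCs, 200,000 cells/well in RPMI-1640/10% FBS, pretreated with compound 1 h, then stimulated with 100 ng/mL LPS for 18-24 h. Supernatant TNF-α measured by Meso Scale assay; activity expressed as percentage of LPS-induced level, DMSO as negative control.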

A further test relates to IL-6. As to the kind of experiment: IL-6 expression in LPS stimulated PBMCs (Meso Scale). The class given is cell-based, human. To be noted: Homo sapiens, PBMC; compound concentration 10 μM; LPS-stimulated PBMCs. A digest of the protocol: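 Thawed human PBMCs at 200,000 cells/well in RPMI-1640/10% FBS were pretreated with compound or DMSO for 1 h, then stimulated with 100 ng/mL LPS for 18–24 h. Supernatant IL-6 was measured by Meso Scale assay and expressed as % of LPS-induced activity.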

The subject of a further test is IL-2. Briefly: anti-CD3-induced IL-2 secretion in PBMCs. Conditions: Homo sapiens, PBMC; compound concentration 10 μM; anti-CD3 stimulated PBMCs, 24 h; DMSO = 1.0; read-out: Fold Change IL-2. The class given is cell-based. The protocol:
FIGS. 4 and 9D are graphs showing anti-CD3-induced IL-2 secretion in PBMCs. 1 ug/mL anti-CD3 (OKT-3) antibody in PBS were coated onto 96-well plates overnight at 4° C. Approximately 550,000 PBMCs were added to each well, followed by addition of DMSO only, Compound 1-8 at 10 μM (FIG. 4) or Compound 9 at 0.1 μM or 1 μM (FIG. 9D), or 10 μM lenalidomide (rev). Induction was measured after 24 h as fold difference from the DMSO stimulated control.
For the IL-2 analysis, 96 well plates were precoated with 1 ug/mL anti-human CD3 antibody (OKT3, eBioscience Inc.). After washing with PBS, compounds were added to the wells (50 μL/well) followed by PBMCs diluted at 3-4 million cells/mL (150 μL/well). Plates were incubated for 24 h and the supernatants collected for Mesoscale IL-2 analysis.
Compound activity was measured as fold difference from the DMSO control. IL-1-beta activity is shown in FIG. 1; IL-6 activity is shown in FIG. 2; TNF-α activity is shown in FIG. 3; and IL-2 activity is shown in FIG. 4.

In the next test the test system is Molm-13 cells. Briefly: Molm-13 cell viability (CellTiter-Glo). The class given is cell-based. To be noted: Homo sapiens, MOLM-13; compound concentration 10 μM; read-out: % Inhibition (MOLM-13 Cell Viability). A digest of the protocol:
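Molm-13 (RPMI-1640, 10% FBS) and H1048 (DMEM:F12, 5% FBS with supplements) plated at 20,000 cells/well, treated with compound or 0.1% DMSO for 3 days at 37° C., 5% CO2. Viability read by CellTiter-Glo luminescence after 10 min.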

With `Cc1scc2c1CN([C@H]1CCCC(=O)NC1=O)C2=O` [Compound 8, (S)-3-(1-methyl-4-oxo-4H-thieno[3,4-c]pyrrol-5(6H)-yl)azepane-2,7-dione], the figures for the inhibition at 10 µM in the test with IL-1β, in the test with TNF-α and in the test on IL-6 were 80%, 71% and 71%, respectively. In the test on IL-2, the fold induction at 10 µM stood at 1. For the same compound, the cytotoxicity at 10 µM in the test on Molm-13 cells is 42%.
For `O=C1CCC[C@H](N2Cc3c(csc3C3CCCC3)C2=O)C(=O)N1` [Compound 10, (S)-3-(1-Cyclopentyl-4-oxo-4H-thieno[3,4-c]pyrrol-5(6H)-yl)azepane-2,7-dione], the inhibition at 10 µM with IL-1β worked out at 21%; with TNF-α, 37%; with IL-6, 13%. Moreover, in the test on IL-2, the fold induction at 10 µM was found to be 0.6. For the same compound, the cytotoxicity at 10 µM with Molm-13 cells was found to be 18%.
For `Cc1cc2c(s1)CN([C@H]1CCCC(=O)NC1=O)C2=O` [Compound 11, (S)-3-(2-Methyl-4-oxo-4,6-dihydro-5H-thieno[2,3-c]pyrrol-5-yl)azepane-2,7-dione], the figures for the inhibition at 10 µM in the test with IL-1β, with TNF-α and with IL-6 were 65%, 46% and 26%, respectively. In addition, in the test with IL-2, the fold induction at 10 µM was determined as 2.6. The cytotoxicity at 10 µM in the test on Molm-13 cells was found to be 18%.
For `CC(C)c1scc2c1CN([C@H]1CCCC(=O)NC1=O)C2=O` [Compound 12, (S)-3-(1-Isopropyl-4-oxo-4H-thieno[3,4-c]pyrrol-5(6H)-yl)azepane-2,7-dione], the values for the inhibition at 10 µM in the test on IL-1β, in the test with TNF-α and in the test with IL-6 were 52%, 56% and 0%, respectively. In addition, the fold induction at 10 µM in the test on IL-2 was 0.8. Also, the cytotoxicity at 10 µM in the test on Molm-13 cells turned out to be 31%.
In the case of `O=C1CCC[C@H](N2Cc3c(csc3Br)C2=O)C(=O)N1` [Compound 13, (S)-3-(1-Bromo-4-oxo-4H-thieno[3,4-c]pyrrol-5(6H)-yl)azepane-2,7-dione], the values for the inhibition at 10 µM in the test with IL-1β, with TNF-α and with IL-6 were 90%, 84% and 66%, respectively. Moreover, in the test with IL-2, the fold induction at 10 µM worked out at 1.2. The cytotoxicity at 10 µM with Molm-13 cells came to 0%.
Turning to `O=C1CCC[C@H](N2Cc3sc(Br)cc3C2=O)C(=O)N1` [Compound 14, (S)-3-(2-Bromo-4-oxo-4,6-dihydro-5H-thieno[2,3-c]pyrrol-5-yl)azepane-2,7-dione], the inhibition at 10 µM came to 88% in the test with IL-1β, 85% in the test with TNF-α and 65% in the test with IL-6. The fold induction at 10 µM with IL-2 was found to be 1.5. Further, the cytotoxicity at 10 µM in the test on Molm-13 cells turned out to be 0%.
The like results for `O=C1CCC[C@H](N2C(=O)c3csc([N+](=O)[O-])c3C2=O)C(=O)N1` [Compound 15, (S)-5-(2,7-Dioxoazepan-3-yl)-1-nitro-4H-thieno[3,4-c]pyrrole-4,6(5H)-dione] were, in that order, 67%, 55%, 56%, 0.7 and 19%.
In the case of `Nc1scc2c1C(=O)N([C@H]1CCCC(=O)NC1=O)C2=O` [Compound 16, (S)-1-Amino-5-(2,7-dioxoazepan-3-yl)-4H-thieno[3,4-c]pyrrole-4,6(5H)-dione], the inhibition at 10 µM was 80% in the test with IL-1β, 78% in the test on TNF-α and 51% in the test on IL-6. For the same compound, the fold induction at 10 µM in the test on IL-2 stood at 2.2. In the test on Molm-13 cells, the cytotoxicity at 10 µM is 23%.
`N#Cc1scc2c1CN([C@H]1CCCC(=O)NC1=O)C2=O` [Compound 17, (S)-5-(2,7-Dioxoazepan-3-yl)-4-oxo-5,6-dihydro-4H-thieno[3,4-c]pyrrole-1-carbonitrile]: the inhibition at 10 µM was 4% in the test on IL-1β, 26% in the test on TNF-α and 14% in the test on IL-6. Besides, in the test on IL-2, the fold induction at 10 µM is 1. Further, the cytotoxicity at 10 µM in the test on Molm-13 cells worked out at 21%.
Regarding `NCc1scc2c1CN([C@H]1CCCC(=O)NC1=O)C2=O` [Compound 18, (S)-3-(1-(Aminomethyl)-4-oxo-4H-thieno[3,4-c]pyrrol-5(6H)-yl)azepane-2,7-dione 2,2,2-trifluoroacetic Acid Salt], the values for the inhibition at 10 µM in the test on IL-1β, with TNF-α and in the test with IL-6 were 36%, 48% and 32%, respectively. The fold induction at 10 µM in the test on IL-2 came out at 0.9. The cytotoxicity at 10 µM in the test with Molm-13 cells worked out at 3%.
With `O=C1CCC[C@H](N2Cc3c(csc3C(F)F)C2=O)C(=O)N1` [Compound 19, (S)-3-(1-(Difluoromethyl)-4-oxo-4H-thieno[3,4-c]pyrrol-5(6H)-yl)azepane-2,7-dione], the inhibition at 10 µM was 79% with IL-1β, 59% in the test on TNF-α and 78% in the test on IL-6. The fold induction at 10 µM with IL-2 was found to be 4. Besides, in the test on Molm-13 cells, the cytotoxicity at 10 µM stood at 29%.
Take `Cc1scc2c1CN([C@H]1CC(=O)NC1=O)C2=O` [Compound 20, (S)-3-(1-Methyl-4-oxo-4H-thieno[3,4-c]pyrrol-5(6H)-yl) pyrrolidine-2,5-dione]: the inhibition at 10 µM in the test with IL-1β came to 50%; in the test with TNF-α it was 58%; in the test with IL-6 it was 19%. The fold induction at 10 µM with IL-2 was 2.2. In the test on Molm-13 cells, the cytotoxicity at 10 µM is 19%.
For `O=C1CCC(N2Cc3sccc3C2=O)C(=O)N1` (centres unmarked) [Compound 21, 3-(4-Oxo-4H-thieno[2,3-c]pyrrol-5(6H)-yl)piperidine-2,6-dione], the inhibition at 10 µM was 74% with IL-1β, 74% in the test on TNF-α and 73% with IL-6. The fold induction at 10 µM with IL-2 stood at 2.9. Moreover, the cytotoxicity at 10 µM in the test with Molm-13 cells was found to be 16%.
As to `O=C1CCC(N2C(=O)c3scc(C4CCCC4)c3C2=O)C(=O)N1` (centres unmarked) [Compound 22, 3-Cyclopentyl-5-(2,6-dioxopiperidin-3-yl)-4H-thieno[2,3-c]pyrrole-4,6(5H)-dione], the inhibition at 10 µM in the test on IL-1β was determined as 0%; in the test with TNF-α it was 26%; with IL-6, 16%. Besides, in the test with IL-2, the fold induction at 10 µM turned out to be 0.8. Also, the cytotoxicity at 10 µM with Molm-13 cells stood at 23%.
Turning to `O=C1CCC(N2Cc3c(csc3C(F)F)C2=O)C(=O)N1` (centres unmarked) [Compound 23, 3-(1-(Difluoromethyl)-4-oxo-4H-thieno[3,4-c]pyrrol-5(6H)-yl)piperidine-2,6-dione], the inhibition at 10 µM amounted to 69% with IL-1β, 82% in the test on TNF-α and 45% in the test on IL-6. Besides, in the test on IL-2, the fold induction at 10 µM turned out to be 2. In the test with Molm-13 cells, the cytotoxicity at 10 µM came to 34%.
In the case of `O=C1CCC[C@H](N2Cc3c(C4CCCC4)csc3C2=O)C(=O)N1` [Compound 24, (S)-3-(3-Cyclopentyl-6-oxo-4H-thieno[2,3-c]pyrrol-5(6H)-yl)azepane-2,7-dione], the inhibition at 10 µM in the test with IL-1β was determined as 11%; in the test on TNF-α, 23%; in the test on IL-6 it was 6%. In the test with IL-2, the fold induction at 10 µM came to 0.7. Also, in the test with Molm-13 cells, the cytotoxicity at 10 µM was 26%.
With `Cc1sc(Cl)c2c1CN([C@H]1CCCC(=O)NC1=O)C2=O` [Compound 25, (S)-3-(3-Chloro-1-methyl-4-oxo-4H-thieno[3,4-c]pyrrol-5(6H)-yl)azepane-2,7-dione], the inhibition at 10 µM in the test with IL-1β is 45%; with TNF-α it was 41%; with IL-6, 22%. The fold induction at 10 µM in the test on IL-2 amounted to 1.3. For the same compound, in the test with Molm-13 cells, the cytotoxicity at 10 µM turned out to be 20%.
With `O=C1CCC(N2C(=O)c3cc(C4CCCC4)sc3C2=O)C(=O)N1` (centres unmarked) [Compound 26, 2-Cyclopentyl-5-(2,6-dioxopiperidin-3-yl)-4H-thieno[2,3-c]pyrrole-4,6(5H)-dione], the inhibition at 10 µM was 2% in the test on IL-1β, 31% with TNF-α and 14% with IL-6. Further, the fold induction at 10 µM in the test on IL-2 is 0.9. In the test on Molm-13 cells, the cytotoxicity at 10 µM came out at 0%.
As to `O=C1CCC(N2C(=O)c3csc(C4CCCC4)c3C2=O)C(=O)N1` (centres unmarked) [Compound 27, 1-Cyclopentyl-5-(2,6-dioxopiperidin-3-yl)-4H-thieno[3,4-c]pyrrole-4,6(5H)-dione], the inhibition at 10 µM in the test on IL-1β is 21%; with TNF-α it was 22%; in the test on IL-6, 3%. Besides, in the test on IL-2, the fold induction at 10 µM came out at 0.8. For the same compound, the cytotoxicity at 10 µM with Molm-13 cells worked out at 0%.
